Three compounds from patent US11357851B2, “Uses of myostatin antagonists, combinations containing them and uses thereof” (Novartis AG, priority 2015, dated 2022) can be followed below.

The test system of assay [1] is CT-26 mouse colon cancer-induced cachexia. Kind of assay: Therapeutic intervention study in CT-26 mouse colon cancer-induced cachexia (tumor-bearing mice). Format: in vivo. To be noted: for body weight loss (of initial body weight): tumor-bearing animals, ten days after starting treatment, CDD866 20 mg/kg s.c. once weekly, cisplatin 1 mg/kg i.p. twice a week; for CT-26-induced loss in body weight: day 14, CDD866 twice weekly; for CT-26-induced muscle weight loss: tibialis anterior, gastrocnemius-soleus-plantaris complex, quadriceps. The protocol: (§1) Adult male Balb/cJRj mice at the age of 11 to 12 weeks were purchased from Janvier Laboratories (Le Genest St Isle, France). Mice were acclimated to the facility for 7 days. Animals were housed in groups of 5 or less animals at 25° C. with a 12:12 h light-dark cycle. They were fed a standard laboratory diet containing 18.2% protein and 3.0% fat with an energy content of 15.8 MJ/kg (NAFAG 3890, Kliba, Basel, Switzerland). Food and water were provided ad libitum.
(§2) Mouse colon cancer cell line CT-26 was cultured in RPMI 1640 medium supplemented with 10% heat inactivated fetal bovine serum and antibiotic-antimycotic solution at 37° C. with 5% CO2. CT-26 cells were harvested by treatment with Accutase® (PAA Laboratories GmbH, Pasching, Austria) and suspended in a solution containing 50% PBS and 50% BD Matrigel™ Matrix without phenol red (catalog number 356237, BD Biosciences, Bedford, Mass., USA). A 0.1 mL of cell suspension containing 3×10^5 cells was inoculated subcutaneously into the left flank of mice. When tumors were palpable, mice bearing tumors with acceptable morphology and size were randomized to produce groups balanced with respect to mean and range of tumor sizes and body weight. Treatments were initiated on the day of randomization. Therapeutic intervention study was conducted to evaluate the effect of CDD866, either alone or in combination with anti-cancer agents. CDD866 was administered at 20 mg/kg s.c., once or twice weekly in a volume of 5 mL/kg. Cisplatin was administered at 1 mg/kg i.p. twice a week. Everolimus was administered at 5 mg/kg p.o. once daily. In the combination groups, cisplatin or everolimus treatment was combined with once or twice weekly subcutaneous treatment of CDD866, respectively. Body weight and tumor volume were measured 2 to 3 times per week. At the end of the experiment, the mice were euthanized with CO2, and tumor, tibialis anterior, gastrocnemius-soleus-plantaris complex, quadriceps were collected and weighed.
(§3) Values are expressed as mean±SEM. Statistical analysis was carried out using Sidak's multiple comparison test following analysis of variance to compare the treatment groups to the control groups (non-tumor and tumor-bearing), anti-cancer agent alone (cisplatin or everolimus) or CDD866 alone in the therapeutic intervention study, and Dunn's multiple comparisons test for time-to-progression study. Differences were considered to be significant when the probability value was <0.05. Statistical analyses were performed by GraphPad Prism (GraphPad Software, Inc., La Jolla, Calif., USA). Body weight was expressed as % change from day 0 as the start of treatment. Tumor volumes in cubic mm were calculated according to the formula (length×width^2)/2. Muscle weight was normalized to the body weight on the day of cell inoculation (initial body weight) and then expressed as % change from the non-tumor control group.

The test system of assay [2] is non-tumor bearing mice. Kind of assay: Therapeutic intervention study, non-tumor bearing (healthy control) mice. The format is in vivo, mouse. The note with it: for body weight in healthy control animals: cisplatin study, non-tumor mice; for weight of tibialis anterior, gastrocnemius-soleus-plantaris complex and quadriceps muscles in non-tumor bearing group / body weight gain in non-tumor bearing group: everolimus study; for body weight gain in non-tumor bearing group: up to day 14, CDD866 20 mg/kg s.c. twice weekly, everolimus 5 mg/kg p.o. once daily. The protocol:
as §1, §2, §3

Assay [3] has as its system CT-26 mouse colon cancer-induced cachexia. Briefly: Time-to-progression study in CT-26 mouse colon cancer cachexia. The note with it: for time-to-progression (days until body weight loss 20% or tumor volume 1,500 mm^3): cisplatin combination study, CDD866 once weekly; for time-to-progression (median days elapsed until an interruption criterion): everolimus combination study, after randomization and treatment start, CDD866 twice weekly. Format: in vivo. The method, then: Time-to-progression study was performed as a follow-up to assess if the combination of CDD866 and cisplatin or everolimus slows progression of cancer cachexia to the interruption criteria which was defined by body weight loss reaching to 20% or tumor volume exceeding 1,500 mm^3. The treatment regimen was the same as used in the therapeutic intervention study. Body weight and tumor volume were measured 2 to 3 times per week in the first 2 weeks and then every day until the end of experiment. The mice were euthanized with CO2, when body weight loss was close to 20% or tumor volume exceeded 1,500 mm^3.
as §3
Extensive tumor growth and subsequent body weight loss are important predictors of mortality in cancer patients. We therefore wanted to evaluate whether the combination of CDD866 and cisplatin has an impact on the length of survival. For ethical reason we abstained from classical survival studies. Instead, each mouse was individually euthanized when experiencing either a body weight loss exceeding 20% of initial body weight, or reaching a tumor volume of 1,500 mm^3, determined as time-to-progression.

The mark [4] stands for this setting: cisplatin study, CT-26 tumor-bearing mice.
Setting [5] is: cisplatin study, CT-26 tumor-bearing mice, normalized to initial body weight, versus non-tumor control.

For the compound `N.N.[Cl][Pt][Cl]` [cisplatin, cis-diamminedichloro-platinum(II)], in assay [1] (setting [4]), the “tumor progression / CT-26 tumor volume and weight” value is given as “reduced CT-26 tumor weight to similar levels”. Besides, in assay [1] (setting [5]), the “gastrocnemius muscle weight loss” value was determined as 25% and the “tibialis anterior muscle wasting (muscle loss)” value was 34%. Besides, the “body weight loss (of initial body weight)” value in assay [1] (cisplatin study) is reported as 20%. The “body weight in healthy control animals” value in assay [2] is reported as “did not affect body weight”. In addition, the “time-to-progression (days until body weight loss 20% or tumor volume 1,500 mm^3)” value in assay [3] is on record as 12 days.
Turning to “CDD866: murinized version of bimagrumab, where the human Fc region of the antibody has been replaced by a mouse Fc”, the “tumor progression / CT-26 tumor volume and weight” value in assay [1] (setting [4]) is given as “neither accelerated tumor progression”. Also, the “gastrocnemius muscle weight loss” value in assay [1] (setting [5]) was found to be 13%. The “body weight loss (of initial body weight)” value in assay [1] (cisplatin study) came out at 3%. Further, in assay [1] (everolimus study), the CT-26 tumor weight result is listed as “no significant effect”, the “CT-26-induced loss in body weight” value is given as “completely prevented” and the “CT-26-induced muscle weight loss” value is “significantly reduced”. In assay [2], the “body weight in healthy control animals” value is “marked body weight gain”; the “weight of tibialis anterior, gastrocnemius-soleus-plantaris complex and quadriceps muscles in non-tumor bearing group” value is listed as “significantly increased”; the “body weight gain in non-tumor bearing group” value is “increased significantly”. Further, in assay [3], the “time-to-progression (days until body weight loss 20% or tumor volume 1,500 mm^3)” value was determined as 16 days and the “time-to-progression (median days elapsed until an interruption criterion)” value is reported as 21 days.
For `CO[C@H]1C[C@@H]2CC[C@@H](C)[C@@](O)(O2)C(=O)C(=O)N2CCCC[C@H]2C(=O)O[C@H]([C@H](C)C[C@@H]2CC[C@@H](OCCO)[C@H](OC)C2)CC(=O)[C@H](C)/C=C(\C)[C@@H](O)[C@@H](OC)C(=O)[C@H](C)C[C@H](C)/C=C/C=C/C=C/1C` [everolimus, (1R,9S,12S,15R,16E,18R,19R,21R,23S,24E,26E,28E,30S,32S,35R)-1,18-d ihydroxy-12-{(1 R)-2-[(1S,3R,4R)-4-(2-hydroxyethoxy)-3-methoxycyclohexyl]-1-methylethyl}-19,30-dimethoxy-15,17,21,23,29,35-hexamethyl-11,36-dioxa-4-aza-tricyclo[30.3.1.04,9]hexatriaconta-16,24,26,28-tetraene-2,3,10,14,20-pentaone], in assay [1] (everolimus study), the CT-26 tumor growth result is “slowed CT-26 tumor growth”, the CT-26 tumor weight entry was “significantly reduced”, the “CT-26-induced loss in body weight” value is recorded as “completely prevented” and the “CT-26-induced muscle weight loss” value is “significantly reduced”. Further, in assay [2], the “weight of tibialis anterior, gastrocnemius-soleus-plantaris complex and quadriceps muscles in non-tumor bearing group” value is on record as “not affected”; the “body weight gain in non-tumor bearing group” value is on record as “not affected significantly”. The “time-to-progression (median days elapsed until an interruption criterion)” value in assay [3] came to 23 days.
